# Source: patent US6358921B1, “Antimicrobial peptide compositions and method” (priority 1996, dated 2002)
# Legend:
# [1] = Displacement of dansyl-polymyxin from LPS; format: binding, P. aeruginosa; details: read-out: LPS binding affinity: peptide concentration to displace 50% of dansyl-polymyxin B from LPS; Tables 1, 4, 7
# Text: In order to determine whether ring size affects the interaction between the peptide and bacterial membranes, we studied the interaction between the GS ring analogs and bacterial lipopolysaccharide (LPS). It has been shown previously that dansyl-polymixin (DPX) is a good probe for cationic binding sites on both purified LPS as well as whole bacterial cells (Example 8; Moore, et al., 1986; Sawyer, et al., 1988; Hancock, 1981). […] The LPS binding activity of various GS analogs was investigated, as discussed above.
# Dansyl-polymixin (DPX) displacement from P. aeruginosa LPS was measured as described (Moore, et al., 1986). Briefly, peptides were titrated into cuvettes containing 3 μg of LPS per mL and 2.5 μM dansyl-polymixin (approximately 90% saturation of LPS binding sites) in 1 mL of 5 mM sodium HEPES buffer, pH 7.0, and the decrease in fluorescence recorded. A plot of the inverse of the percent inhibition as a function of the inverse of inhibitor concentration gave a value for I50, the inhibitor concentration resulting in 50% displacement of dansyl-polymixin from LPS (−1/× intercept).
# S. aureus SAP0017 = format: cell-based, Staphylococcus aureus
# Text: (§1) The following bacterial strains were utilized: Escherichia coli UB1005 (wt) and its antibiotic supersusceptible derivative DC2 (Clark, 1984); Excherichia coli SC9251 and its polymixin B rasistant mutant pmrA SC9252 (Peterson, et al., 1987) Pseudomonas aeruginosa H187 (wt) (Angus, et al., 1987) and its antibiotic-sensitive derivative H188 (Zimmerman, W, Antimicrob. Agents Chemother. 18: 94-100, 1980); methicillin sensitive Staphylococcus aureus K147 (Kreiswirth, et al., 1983); Staphylococcus aureus SAP0017, a methicillin resistant clinical isolate from Dr. A. Chow (University of British Columia); Bacillus subtilis, an environmental wt lab strain. Enterococcus faecalis are ATCC 29212 cells and Staphylococcus epidermidis was a clinical isolate from Dr. D. Speert (University of British Columbia). Antifungal activity was tested using a clinical lab isolate of Candida albicans. Salmonella typhinurium C57 and C610 (Fields, P.I., et al., Science 243: 1059-1062 (1989) Corynebacterium xerosis was an environmental isolate (University of British Columbia).
# (§2) It is now apparent that agar-based assays severely underestimate antifungal activity as well as activity against gram negative microorganisms (Kondejewski, et al., 1996). Consequently, in the studies reported herein, a liquid-broth method was used to measure the antibiotic properties of the peptides. […] Briefly, cells were grown overnight at 37° C. in LB and diluted in the same medium. Serial dilutions of antibiotics were added to the microtitre plates in a volume of 100 μL followed by 10 μL of bacteria to give a final inoculum of 5×10^5 CFU/mL. Plates were incubated at 37° C. overnight and MICs determined as the lowest antibiotic concentration that inhibited growth.
# (§3) The results from antimicrobial and hemolytic assays are combined to provide a “Therapeutic Index” (TI) for each peptide with respect to individual microorganisms. As reported herein, the TI is calculated as the hemolytic activity divided by the antimicrobial activity. The TI thus is a measure of specificity of the particular peptide for microbial membranes as opposed to human blood cell membranes. In the present studies, antimicrobial activities are reported as minimum inhibitory concentrations (MIC)—the lowest concentration of peptide (μg/ml) found to inhibit growth of the particular microbe. Hemolytic activity is reported as the concentration of peptide that effected complete lysis of blood cells after four hours. Thus, in the context of the present invention high TI values indicate microbial specificity and relative lack of toxicity.
# S. aureus K147 = format: cell-based, Staphylococcus aureus
# Text: as §1, §2, §3
# E. faecalis = format: cell-based, Enterococcus faecalis
# Text: as §1
# as §2, with “growth. […]” for “growth.”
# P. aeruginosa H188 = format: cell-based, Pseudomonas aeruginosa; details: H188
# Text: as §1
# as §2, with “growth. […]” for “growth.”
# E. coli DC2 = format: cell-based, Escherichia coli; details: DC2
# Text: as §1, §2, §3
# B. subtilis = format: cell-based, Bacillus subtilis
# Text: as §1
# as §2, with “growth. […]” for “growth.”
# P. aeruginosa H187 = format: cell-based, Pseudomonas aeruginosa; details: H187
# Text: as §1, §2, §3
# E. coli UB1005 = format: cell-based, Escherichia coli; details: UB1005
# Text: as §1
# as §2, with “growth. […]” for “growth.”
# S. typhinurium C610 = format: cell-based, Salmonella typhinurium
# Text: as §1
# as §2, with “growth. […]” for “growth.”
# C. xeroses = format: cell-based, Corynebacterium xerosis
# Text: as §1
# as §2, with “growth. […]” for “growth.”
# S. epidermidis = format: cell-based, Staphylococcus epidermidis
# Text: as §1
# as §2, with “growth. […]” for “growth.”
# C. Albicans = format: cell-based, Candida albicans
# Text: as §1
# as §2, with “growth. […]” for “growth.”
# S. typhinurium C587 = format: cell-based, Salmonella typhinurium
# Text: as §1
# as §2, with “growth. […]” for “growth.”
smiles,measurement,setting,value
CC(C)C[C@@H]1NC(=O)[C@H](CCCCN)NC(=O)[C@H](C(C)C)NC(=O)[C@@H]2CCCN2C(=O)[C@@H](Cc2ccc(O)cc2)NC(=O)[C@H](CC(C)C)NC(=O)[C@H](CCCCN)NC(=O)[C@H](C(C)C)NC(=O)[C@H](CCCCN)NC(=O)[C@H](CC(C)C)NC(=O)[C@@H]2CCCN2C(=O)[C@@H](Cc2ccc(O)cc2)NC(=O)[C@H](C(C)C)NC(=O)[C@@H](CCCCN)NC1=O [GS14K4],IC50,[1],93 µM
same,Minimum Inhibitory Concentration (activity),S. aureus SAP0017,50 µg/mL
same,Minimum Inhibitory Concentration (activity),S. aureus K147,100 µg/mL
same,Minimum Inhibitory Concentration (activity),E. faecalis,1.5 µg/mL
same,Minimum Inhibitory Concentration (activity),P. aeruginosa H188,3.1 µg/mL
same,Minimum Inhibitory Concentration (activity),E. coli DC2,3.1 µg/mL
same,Minimum Inhibitory Concentration (activity),B. subtilis,25 µg/mL
same,Minimum Inhibitory Concentration (activity),P. aeruginosa H187,25 µg/mL
same,Minimum Inhibitory Concentration (activity),E. coli UB1005,6.2 µg/mL
same,Minimum Inhibitory Concentration (activity),S. typhinurium C610,4 µg/mL
same,Minimum Inhibitory Concentration (activity),C. xeroses,1.5 µg/mL
same,Minimum Inhibitory Concentration (activity),S. epidermidis,2 µg/mL
CC(C)C[C@@H]1NC(=O)[C@H](CCCCN)NC(=O)[C@H](C(C)C)NC(=O)[C@@H]2CCCN2C(=O)[C@@H](Cc2ccc(O)cc2)NC(=O)[C@H](CC(C)C)NC(=O)[C@@H](CCCCN)NC(=O)[C@H](C(C)C)NC(=O)[C@H](CCCCN)NC(=O)[C@H](CC(C)C)NC(=O)[C@@H]2CCCN2C(=O)[C@@H](Cc2ccc(O)cc2)NC(=O)[C@H](C(C)C)NC(=O)[C@H](CCCCN)NC1=O [GS14K11],IC50,[1],50 µM
same,Minimum Inhibitory Concentration (activity),S. aureus SAP0017,25 µg/mL
same,Minimum Inhibitory Concentration (activity),S. aureus K147,25 µg/mL
same,Minimum Inhibitory Concentration (activity),E. faecalis,1.5 µg/mL
same,Minimum Inhibitory Concentration (activity),P. aeruginosa H188,5 µg/mL
same,Minimum Inhibitory Concentration (activity),E. coli DC2,3.1 µg/mL
same,Minimum Inhibitory Concentration (activity),C. Albicans,6.2 µg/mL
same,Minimum Inhibitory Concentration (activity),B. subtilis,25 µg/mL
same,Minimum Inhibitory Concentration (activity),P. aeruginosa H187,37 µg/mL
same,Minimum Inhibitory Concentration (activity),E. coli UB1005,6.2 µg/mL
same,Minimum Inhibitory Concentration (activity),S. typhinurium C610,6.2 µg/mL
same,Minimum Inhibitory Concentration (activity),C. xeroses,0.8 µg/mL
same,Minimum Inhibitory Concentration (activity),S. epidermidis,3.1 µg/mL
CC(C)C[C@@H]1NC(=O)[C@H](CCCCN)NC(=O)[C@H](C(C)C)NC(=O)[C@@H]2CCCN2C(=O)[C@@H](Cc2ccc(O)cc2)NC(=O)[C@H](CC(C)C)NC(=O)[C@H](CCCCN)NC(=O)[C@H](C(C)C)NC(=O)[C@H](CCCCN)NC(=O)[C@@H](CC(C)C)NC(=O)[C@@H]2CCCN2C(=O)[C@@H](Cc2ccc(O)cc2)NC(=O)[C@H](C(C)C)NC(=O)[C@H](CCCCN)NC1=O [GS14L8],IC50,[1],62 µM
same,Minimum Inhibitory Concentration (activity),S. aureus SAP0017,25 µg/mL
same,Minimum Inhibitory Concentration (activity),S. aureus K147,50 µg/mL
same,Minimum Inhibitory Concentration (activity),E. faecalis,1.5 µg/mL
same,Minimum Inhibitory Concentration (activity),P. aeruginosa H188,3.1 µg/mL
same,Minimum Inhibitory Concentration (activity),E. coli DC2,3.1 µg/mL
same,Minimum Inhibitory Concentration (activity),C. Albicans,6.2 µg/mL
same,Minimum Inhibitory Concentration (activity),P. aeruginosa H187,37 µg/mL
same,Minimum Inhibitory Concentration (activity),E. coli UB1005,6.2 µg/mL
same,Minimum Inhibitory Concentration (activity),S. typhinurium C610,6.2 µg/mL
same,Minimum Inhibitory Concentration (activity),C. xeroses,0.8 µg/mL
same,Minimum Inhibitory Concentration (activity),S. epidermidis,3.1 µg/mL
CC(C)C[C@@H]1NC(=O)[C@H](CCCCN)NC(=O)[C@H](C(C)C)NC(=O)[C@@H]2CCCN2C(=O)[C@@H](Cc2ccc(O)cc2)NC(=O)[C@H](CC(C)C)NC(=O)[C@H](CCCCN)NC(=O)[C@H](C(C)C)NC(=O)[C@H](CCCCN)NC(=O)[C@H](CC(C)C)NC(=O)[C@@H]2CCCN2C(=O)[C@@H](Cc2ccc(O)cc2)NC(=O)[C@@H](C(C)C)NC(=O)[C@H](CCCCN)NC1=O [GS14V5],IC50,[1],33 µM
same,Minimum Inhibitory Concentration (activity),S. aureus SAP0017,50 µg/mL
same,Minimum Inhibitory Concentration (activity),S. aureus K147,100 µg/mL
same,Minimum Inhibitory Concentration (activity),E. faecalis,1.5 µg/mL
same,Minimum Inhibitory Concentration (activity),P. aeruginosa H188,62 µg/mL
same,Minimum Inhibitory Concentration (activity),E. coli DC2,3.1 µg/mL
same,Minimum Inhibitory Concentration (activity),C. Albicans,6.2 µg/mL
same,Minimum Inhibitory Concentration (activity),B. subtilis,200 µg/mL
same,Minimum Inhibitory Concentration (activity),P. aeruginosa H187,100 µg/mL
same,Minimum Inhibitory Concentration (activity),E. coli UB1005,15 µg/mL
same,Minimum Inhibitory Concentration (activity),S. typhinurium C587,100 µg/mL
same,Minimum Inhibitory Concentration (activity),S. epidermidis,3.1 µg/mL
CC(C)C[C@@H]1NC(=O)[C@H](CCCCN)NC(=O)[C@H](C(C)C)NC(=O)[C@@H]2CCCN2C(=O)[C@@H](Cc2ccc(O)cc2)NC(=O)[C@H](CC(C)C)NC(=O)[C@H](CCCCN)NC(=O)[C@@H](C(C)C)NC(=O)[C@H](CCCCN)NC(=O)[C@H](CC(C)C)NC(=O)[C@@H]2CCCN2C(=O)[C@@H](Cc2ccc(O)cc2)NC(=O)[C@H](C(C)C)NC(=O)[C@H](CCCCN)NC1=O [GS14V10],IC50,[1],18 µM
same,Minimum Inhibitory Concentration (activity),S. aureus SAP0017,50 µg/mL
same,Minimum Inhibitory Concentration (activity),S. aureus K147,200 µg/mL
same,Minimum Inhibitory Concentration (activity),E. faecalis,1.5 µg/mL
same,Minimum Inhibitory Concentration (activity),P. aeruginosa H188,200 µg/mL
same,Minimum Inhibitory Concentration (activity),E. coli DC2,3.1 µg/mL
same,Minimum Inhibitory Concentration (activity),C. Albicans,17 µg/mL
same,Minimum Inhibitory Concentration (activity),P. aeruginosa H187,>200 µg/mL
same,Minimum Inhibitory Concentration (activity),E. coli UB1005,200 µg/mL
same,Minimum Inhibitory Concentration (activity),S. typhinurium C610,200 µg/mL
same,Minimum Inhibitory Concentration (activity),S. typhinurium C587,>200 µg/mL
same,Minimum Inhibitory Concentration (activity),C. xeroses,0.8 µg/mL
same,Minimum Inhibitory Concentration (activity),S. epidermidis,3.1 µg/mL
